Data: US20080051350A1, “Therapeutic Use for a Group of Sulphated Polysaccharides” (Bioiberica, S.A., priority 2004, published 2008)
Marks after values point to notes of the source that are not given here.

Legend:
Type in all cases: cell-based
[1] = system: Human articular chondrocytes; test: Synthesis of extracellular aggrecans determined by incorporation of 35S in primary culture of human chondrocytes in agarose gel; details: for 35S incorporated into the aggrecans associated with the cells / 35S incorporated into the inter-territorial matrix's aggrecans / 35S incorporated into the re-synthesised aggrecans (total): 48 h
Experimental: Human articular chondrocytes were isolated following the methods described by W. T. Green Jr. (Clin. Orthop., 75, 248-260 (1971)) and K. E. Kuettner et al. (J. Cell. Biol., 93, 743-750 (1982)).
These chondrocytes were cultured in an agarose gel following the method described by P. D. Benya et al. (Cell, 30, 215-224, (1982)), and modified by G. Verbruggen et al. (Clin. Exp. Rheumatol., 8, 371-378 (1990)) and by M. Cornelissen et al. (J. Tiss. Cult. Meth., 15, 139-146 (1993)).
The synthesis of aggrecans was determined by the incorporation of ^35S, using labelled sodium sulphate Na2^35SO4 as radioactive precursor. After two weeks of culture, 10 μCi/mL of radio-labelled precursor were introduced in the culture medium for 48 h, as was the compound to be assayed (inulin polysulphate in Chemical Example 1) at different concentrations (0.0, 0.1, 0.5, 1.0, 5.0 μg/mL).
The synthesised ^35S aggrecans once again partially accumulated in the intercellular agarose matrix or else were released in the incubation medium.
Once the incubation period ended, the agarose gel was mechanically broken down and subsequently digested by means of 3 mL of a 50 U/mL […] solution in a 0.067 M phosphate buffer, at pH 6.0, in the presence of proteinase inhibitors.
The suspension thus produced was centrifuged; the supernatant containing the inter-territorial matrix's ^35S aggrecans and the incubation medium containing the ^35S aggrecan metabolites released in the extracellular matrix were subsequently united by means of chromatography.
The residue, which contained the chondrocytes and the associated ^35S aggrecans, was treated for 48 hours with 1 mL of a 4.0 M guanidium chloride solution in a 0.05M acetate buffer at pH 5.8 containing the proteinase inhibitors.
The purpose of this operation is to extract the ^35S aggrecans associated with the cells. The solution produced was centrifuged in order to separate the cells from the supernatant, which was subsequently separated by means of chromatography. The chromatography operations for the different fractions produced were performed on Sephadex G25 gel in a phosphate buffer pH 6.8 containing 0.01 M of Na2SO4, in order to separate the ^35S aggrecans from the free Na2^35SO4.
The radioactivity of each of the macromolecular eluants produced was measured and related to the number of chondrocytes contained in the initial culture, expressed in pg of ^35SO4 incorporated into the aggrecans, per million chondrocytes per hour.

[2] = system: human articular chondrocytes treated with interleukin-1 (IL-1); test: Aggrecans associated with IL-1-treated chondrocytes, measured by immunocytochemistry / flux cytometry; details: for Mean fluorescence intensity in the chondrocytes after labelling of aggrecan, M ± SD: one week of culture
Experimental: The human articular chondrocytes were isolated and cultured following the previously described methods.
The accumulation of aggrecans associated with the chondrocytes was measured, after a week of culture, by means of the immunocytochemistry technique described by L. Wang et al. (Osteoarthritis Cart., 9, 248-260 (2001)). The chondrocytes were treated with interleukin-1 (IL-1) in order to simulate a situation of inflammation and catabolism. The inulin polysulphate in Chemical Example 1 was added jointly with IL-1.
Once the incubation period ended, the chondrocytes were released from the agarose gel following the described method. The chondrocytes and the associated aggrecans were studied by means of flux cytometry using monoclonal antibodies specifically directed against the aggrecans' proteic part.

[3] = system: rat chondrosarcoma cell line called LTC; test: Inhibition of aggrecan degradation induced by IL-1α (Western Blot, anti-aggrecan antibody G1 / NITGE); details: 100 μg/mL, in the presence or not of IL-1α (10 ng/mL), 4 days, FIG. 1
Experimental: The assays were performed on chondrocyte cultures from a rat chondrosarcoma cell line called LTC.
The LTC cells were kept in a monolayer culture in a Gibco DMEM medium (Dulbecco's Modification of Eagle's Medium) (containing 4.5 g/L of glucose) supplemented with sodium bicarbonate (3.7 g/L), glutamine (2 mM), ascorbic acid (50 mg/L), gentamicin (50 mg/L), and bovine fetal serum Hyalone (10%), at pH 7.4.
The confluent LTC cell cultures were trypsinised and 40,000 cells per 0.5 mL of culture were seeded in 48-well plates. They were maintained for 5 days, during which time they deposited 15-30 μg of glycosaminoglycans (GAG) in each well.
The medium was separated, the cell membranes were washed by adding 5×1 mL of a catabolic medium {DMEM+4.5 g/L glucose supplemented with sodium bicarbonate (3.7 g/L), glutamine (2 mM), and 10 ng/mL of IL-1α (interleukin-1α) at pH 7.4). […]
For the Western Blot, 20 μL of 50 mM tris-acetate at pH 7.3 were added to each well. […] 25 μL-fractions of the supernatant were separated by electrophoresis (gel gradient 8-12% SDS PAGE) and analysed by means of a Western Blot using anti-aggrecan antibody G1. […] The antiserum was used at a 1:5,000 dilution and the peroxidase-conjugated goat anti-(rabbit IgG) was detected by means of the Amersham ECL Kit.

[4] = Donor F45, IL-1 + IPS 0.5 μg/mL
[5] = Donor F45, IL-1 + IPS 1.0 μg/mL
[6] = Donor F45, IL-1 + IPS 2.5 μg/mL
[7] = Donor M32, IL-1 + IPS 1.0 μg/mL
[8] = Donor M32, IL-1 + IPS 2.5 μg/mL
[9] = Donor M32, IL-1 + IPS 5.0 μg/mL

Inulin Polysulphate Sodium Salt [IPS] was tested, and the “Concentration of optimum activity on aggrecan synthesis” value ([1]; 35S incorporation, concentrations 0.1-5.0 μg/mL tested) was “about 0.5 μg/mL”, the “% Total: aggrecans associated with the cells with respect to the total quantity of aggrecans” value (“% Total: aggrecans associated” below) ([1]; IPS 0.1 μg/mL) was 23.5% and the “% Total: inter-territorial matrix's aggrecans with respect to the total quantity of aggrecans” value ([1]; IPS 0.1 μg/mL) was 66.2%. For the same substance, the “% Total: re-synthesised aggrecans with respect to the total quantity of aggrecans” value (shortened to “% Total: re-synthesised aggrecans”) ([1]; IPS 0.1 μg/mL) was 100%, the “% change with respect to the non-treated control, aggrecans associated with the cells” value ([1]; IPS 0.1 μg/mL) was 15.1% and the “% change with respect to the non-treated control, re-synthesised aggrecans (total)” value ([1]; IPS 0.1 μg/mL) was 2.9%. For the same substance, the “% change with respect to the untreated control, inter-territorial matrix's aggrecans” value (from here on “% change … inter-territorial matrix's aggrecans”) ([1]; IPS 0.1 μg/mL) was 1.4%, the “35S incorporated into the aggrecans associated with the cells” value ([1]; IPS 0.1 μg/mL) was 2,737 pg ^35S/10^6 cells/h and the “35S incorporated into the inter-territorial matrix's aggrecans” value ([1]; IPS 0.1 μg/mL) was 7,818 pg ^35S/10^6 cells/h. For the same substance, the “35S incorporated into the re-synthesised aggrecans (total)” value ([1]; IPS 0.1 μg/mL) was 11,756 pg ^35S/10^6 cells/h, the “% Total: aggrecans associated” value ([1]; IPS 0.5 μg/mL) was 18.4% and the “% Total: inter-territorial matrix's aggrecans with respect to the total quantity of aggrecans” value ([1]; IPS 0.5 μg/mL) was 70.7%. The “% Total: re-synthesised aggrecans” value ([1]; IPS 0.5 μg/mL) was 100%, the “% change with respect to the non-treated control, aggrecans associated with the cells” value ([1]; IPS 0.5 μg/mL) was 28.8* % and the “% change with respect to the non-treated control, re-synthesised aggrecans (total)” value ([1]; IPS 0.5 μg/mL) was 51.5* %. For the same substance, the “% change … inter-territorial matrix's aggrecans” value ([1]; IPS 0.5 μg/mL) was 60.6%, the “35S incorporated into the aggrecans associated with the cells” value ([1]; IPS 0.5 μg/mL) was 3,064* pg ^35S/10^6 cells/h and the “35S incorporated into the inter-territorial matrix's aggrecans” value ([1]; IPS 0.5 μg/mL) was 12,383 pg ^35S/10^6 cells/h. For the same substance, the “35S incorporated into the re-synthesised aggrecans (total)” value ([1]; IPS 0.5 μg/mL) was 17,312* pg ^35S/10^6 cells/h, the “% Total: aggrecans associated” value ([1]; IPS 1.0 μg/mL) was 17.9% and the “% Total: inter-territorial matrix's aggrecans with respect to the total quantity of aggrecans” value ([1]; IPS 1.0 μg/mL) was 70.7%. For the same substance, the “% Total: re-synthesised aggrecans” value ([1]; IPS 1.0 μg/mL) was 100%, the “% change with respect to the non-treated control, aggrecans associated with the cells” value ([1]; IPS 1.0 μg/mL) was 11.9% and the “% change with respect to the non-treated control, re-synthesised aggrecans (total)” value ([1]; IPS 1.0 μg/mL) was 33.7* %. For the same substance, the “% change … inter-territorial matrix's aggrecans” value ([1]; IPS 1.0 μg/mL) was 41.2* %, the “35S incorporated into the aggrecans associated with the cells” value ([1]; IPS 1.0 μg/mL) was 2,662 pg ^35S/10^6 cells/h and the “35S incorporated into the inter-territorial matrix's aggrecans” value ([1]; IPS 1.0 μg/mL) was 10,887* pg ^35S/10^6 cells/h. For the same substance, the “35S incorporated into the re-synthesised aggrecans (total)” value ([1]; IPS 1.0 μg/mL) was 15,281* pg ^35S/10^6 cells/h, the “% Total: aggrecans associated” value ([1]; IPS 5.0 μg/mL) was 17.4% and the “% Total: inter-territorial matrix's aggrecans with respect to the total quantity of aggrecans” value ([1]; IPS 5.0 μg/mL) was 67.9%. For the same substance, the “% Total: re-synthesised aggrecans” value ([1]; IPS 5.0 μg/mL) was 100%, the “% change with respect to the non-treated control, aggrecans associated with the cells” value ([1]; IPS 5.0 μg/mL) was 14.2% and the “% change with respect to the non-treated control, re-synthesised aggrecans (total)” value ([1]; IPS 5.0 μg/mL) was 3.0%. For the same substance, the “% change … inter-territorial matrix's aggrecans” value ([1]; IPS 5.0 μg/mL) was 8.2%, the “35S incorporated into the aggrecans associated with the cells” value ([1]; IPS 5.0 μg/mL) was 2,041 pg ^35S/10^6 cells/h and the “35S incorporated into the inter-territorial matrix's aggrecans” value ([1]; IPS 5.0 μg/mL) was 8,340 pg ^35S/10^6 cells/h. The “35S incorporated into the re-synthesised aggrecans (total)” value ([1]; IPS 5.0 μg/mL) was 12,106 pg ^35S/10^6 cells/h, the “% Change with respect to the group treated with IL-1 (IL-1 = 100.0)” value (“% Change … (IL-1 = 100.0)” below) [2, 4] was 112.7* % and the “Mean fluorescence intensity in the chondrocytes after labelling of aggrecan, M ± SD” value (“Mean fluorescence intensity … M ± SD” below) [2, 4] was 20.4 ± 0.2. The “% Change … (IL-1 = 100.0)” value [2, 5] was 147.0* %, the “Mean fluorescence intensity … M ± SD” value [2, 5] was 26.6 ± 0.1 and the “% Change … (IL-1 = 100.0)” value [2, 6] was 215.5* %. For the same substance, the “Mean fluorescence intensity … M ± SD” value [2, 6] was 39.0 ± 0.2, the “% Change … (IL-1 = 100.0)” value [2, 7] was 116.2* % and the “Mean fluorescence intensity … M ± SD” value [2, 7] was 20.8 ± 1.2. The “% Change … (IL-1 = 100.0)” value [2, 8] was 120.7* %, the “Mean fluorescence intensity … M ± SD” value [2, 8] was 21.6 ± 1.1 and the “% Change … (IL-1 = 100.0)” value [2, 9] was 139.7* %. For the same substance, the “Mean fluorescence intensity … M ± SD” value [2, 9] was 25.0 ± 1.4 and the “Effect on aggrecan degradation (band of aggrecan fragments labelled with antibody NITGE G1)” value [3] was “aggrecan degradation is inhibited”.
